The text below walks through data of patent US20250382344A1, “Soluble GLP1/GIP/NPY2 Receptor Triple Agonists” (Boehringer Ingelheim International GmH, priority 2024, published 2025).

Read-outs that look alike come from different tables or passages of the source.

In one series the target is T1, hGIPR (Homo sapiens, UniProt P48546).
T1 construct: expressed in transfected cells; host or cells: CHO CRE-luciferase reporter cells
T1 sequence (P48546 22-466): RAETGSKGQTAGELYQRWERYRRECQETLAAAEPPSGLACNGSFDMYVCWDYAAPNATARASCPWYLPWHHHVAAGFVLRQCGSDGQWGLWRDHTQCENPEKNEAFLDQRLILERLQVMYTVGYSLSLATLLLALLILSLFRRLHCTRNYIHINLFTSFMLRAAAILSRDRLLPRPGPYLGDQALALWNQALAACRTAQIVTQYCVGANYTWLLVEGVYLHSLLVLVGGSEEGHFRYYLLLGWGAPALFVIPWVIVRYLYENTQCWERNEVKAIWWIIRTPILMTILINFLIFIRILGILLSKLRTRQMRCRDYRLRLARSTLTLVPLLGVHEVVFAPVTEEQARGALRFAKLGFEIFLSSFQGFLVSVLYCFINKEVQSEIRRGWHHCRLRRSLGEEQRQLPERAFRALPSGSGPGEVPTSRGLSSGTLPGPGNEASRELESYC
In words: hGIPR CreLuc assay in 0.5% and 100% plasma (CHO CRE-luciferase reporter cells). The series is classed as cell-based. A general note: In a reporter assay the amount or activity of a reporter protein is the signal.

The nature of series [1]: Mouse PK after intravenous application. The series is classed as in vivo. Conditions: plasma, male NMRI mice, intravenous 30-60 nmol/kg, non-compartmental analysis. The protocol: Pharmacokinetic parameters of the peptides were determined after intravenous application to NMRI mice (Naval Medical Research Institute mice). Male NMRI mice were obtained from Janvier Laboratories (France) weighing 30 g to 40 g. Mice were housed in standard cages with a 12:12 hours light:dark cycle and standard food and water access ad libitum. Each test peptide was dissolved in 50 mM phosphate buffer (pH 7.4)/3.5% mannitol. Intravenous application of 30-60 nmol/kg was performed via the tail vein. Serial blood samples from conscious mice were collected from the saphenous vein in EDTA-containing vials at different time points up to 56 hours post-dosing. Subsequently, plasma was prepared by centrifugation for 5 minutes at approximately 5000 rpm and stored at −20° C. until quantification of the peptide plasma levels by liquid chromatography mass spectrometry (LC-MS). Individual plasma concentration-time profiles were analysed by a non-compartmental approach and the resulting pharmacokinetic parameters were calculated.

The target in another series is T2, hNPY2R (Homo sapiens, UniProt P49146).
T2 construct: expressed in transfected cells; host or cells: HEK-293 CRE-luciferase reporter cells
T2 sequence (P49146 1-381): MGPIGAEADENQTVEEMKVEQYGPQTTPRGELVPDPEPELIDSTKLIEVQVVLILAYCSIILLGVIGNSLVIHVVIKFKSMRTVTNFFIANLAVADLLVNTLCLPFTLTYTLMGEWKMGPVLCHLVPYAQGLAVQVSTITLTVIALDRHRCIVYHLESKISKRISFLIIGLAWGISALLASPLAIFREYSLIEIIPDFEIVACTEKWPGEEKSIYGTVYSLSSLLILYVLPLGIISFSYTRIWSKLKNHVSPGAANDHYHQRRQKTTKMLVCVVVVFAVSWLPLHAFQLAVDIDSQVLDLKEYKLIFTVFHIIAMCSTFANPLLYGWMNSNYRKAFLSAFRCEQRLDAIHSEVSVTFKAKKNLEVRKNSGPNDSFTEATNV
In words: hNPY2R CreLuc assay in 0.5% and 100% plasma (HEK-293 CRE-luciferase reporter cells). The class given is cell-based. Conditions: 100% human plasma, HEK-293 reporter cells, read-out: hNPY2R 100% hP.

Series [2] can be described thus: Solubility in 0.1 M phosphate buffer at pH 7. The series is classed as physicochemical. Conditions: 0.1 M phosphate buffer at pH 7, 10 mg/mL final peptide concentration, shaking 2 hours at room temperature, peptides as TFA-salts, measured sample pH 6.5-7.0.
Another series has as its target T3, hGLP1R (Homo sapiens, UniProt P43220).
T3 construct: expressed in transfected cells; host or cells: HEK-293 CRE-luciferase reporter cells
In words: hGLP1R CreLuc assay in 0.5% and 100% plasma (HEK-293 CRE-luciferase reporter cells). The class given is cell-based. Conditions: HEK-293 reporter cells.

The mark [3] stands for this setting: 0.5% human plasma, read-out: hGIPR 0.5% hP.
Setting [4] is: 0.5% human plasma, read-out: hGLP1R 0.5% hP.

T3 sequence (P43220 24-463): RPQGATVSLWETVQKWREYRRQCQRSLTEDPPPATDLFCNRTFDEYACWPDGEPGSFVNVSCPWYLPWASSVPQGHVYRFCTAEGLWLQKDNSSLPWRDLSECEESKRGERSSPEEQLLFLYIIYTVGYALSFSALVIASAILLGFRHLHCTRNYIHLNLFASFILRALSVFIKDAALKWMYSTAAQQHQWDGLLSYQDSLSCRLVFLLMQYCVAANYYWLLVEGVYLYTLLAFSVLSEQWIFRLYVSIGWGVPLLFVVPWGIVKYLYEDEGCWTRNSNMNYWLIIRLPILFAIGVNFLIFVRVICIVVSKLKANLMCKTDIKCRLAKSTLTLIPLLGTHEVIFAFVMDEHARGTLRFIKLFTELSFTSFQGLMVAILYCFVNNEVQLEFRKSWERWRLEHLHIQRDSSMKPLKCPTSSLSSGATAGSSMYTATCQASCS

Consider `CC[C@H](C)[C@H](NC(=O)[C@H](CC(C)C)NC(=O)[C@H](Cc1c[nH]cn1)NC(=O)[C@H](CCCNC(=N)N)NC(=O)[C@@H](NC(=O)[C@H](Cc1ccccc1)NC(=O)[C@H](C)NC(=O)C(C)(C)NC(=O)[C@H](CCC(=O)O)NC(=O)[C@H](C)NC(=O)[C@H](CCC(N)=O)NC(=O)[C@H](CCCCN)NC(=O)[C@H](CCC(=O)O)NC(=O)[C@H](CC(C)C)NC(=O)C(C)(C)NC(=O)[C@@H](NC(=O)[C@H](CO)NC(=O)[C@H](Cc1ccc(O)cc1)NC(=O)[C@H](CC(=O)O)NC(=O)[C@H](CO)NC(=O)[C@@H](NC(=O)[C@H](Cc1ccccc1)NC(=O)[C@@H](NC(=O)CNC(=O)[C@H](CCC(=O)O)NC(=O)C(C)(C)NC(=O)[C@@H](N)Cc1ccc(O)cc1)[C@@H](C)O)[C@@H](C)O)[C@@H](C)CC)C(C)C)C(=O)N[C@@H](CC(N)=O)C(=O)N[C@@H](CCCCNC(=O)[C@@H](N)CCCCNC(=O)CC[C@H](NC(=O)CC[C@H](NC(=O)CC[C@H](NC(=O)CC[C@H](NC(=O)CC[C@H](NC(=O)CC[C@H](NC(=O)CCCCCCCCCCCCCCCCC(=O)O)C(=O)O)C(=O)O)C(=O)O)C(=O)O)C(=O)O)C(=O)O)C(=O)NC(C)(C)C(=O)N[C@H](C(=O)N[C@@H](CCCNC(=N)N)C(=O)N[C@@H](CCC(N)=O)C(=O)N[C@@H](CCCNC(=N)N)C(=O)N[C@@H](Cc1ccc(O)cc1)C(N)=O)[C@@H](C)O` [Compound 10, Y-Aib-E-G-T-F-T-S-D-Y-S-I-Aib-L-E-K-Q-A-E-Aib-A-F-V-R-H-L-I-N-K(1,3)-Aib-T-R-Q-R-Y-NH2.C18DA-gGlu-gGlu-gGlu-gGlu-gGlu-gGlu-eLys(1,2)], for which the EC50 is 0.6 nM on hGIPR (setting [3]) and 28.2 nM on hNPY2R. Further, in series [1], the mean residence time (MRT) (as a rule, a mean duration of stay, worked out from the concentration-time curve) turned out to be 7.3 h. For the same molecule, the solubility (commonly the dissolved amount per volume that the medium holds) at 2 h in series [2] was found to be 3800 µg/mL.

For the molecule `CC[C@H](C)[C@H](NC(=O)[C@H](CC(C)C)NC(=O)[C@H](Cc1c[nH]cn1)NC(=O)[C@H](CCCNC(=N)N)NC(=O)[C@@H](NC(=O)[C@H](Cc1ccccc1)NC(=O)[C@H](C)NC(=O)C(C)(C)NC(=O)[C@H](CCC(N)=O)NC(=O)[C@H](C)NC(=O)[C@H](CCC(N)=O)NC(=O)[C@H](CCCCN)NC(=O)[C@H](CCC(=O)O)NC(=O)[C@H](CC(C)C)NC(=O)C(C)(C)NC(=O)[C@@H](NC(=O)[C@H](CO)NC(=O)[C@H](Cc1ccc(O)cc1)NC(=O)[C@H](CC(=O)O)NC(=O)[C@H](CO)NC(=O)[C@@H](NC(=O)[C@H](Cc1ccccc1)NC(=O)[C@@H](NC(=O)CNC(=O)[C@H](CCC(=O)O)NC(=O)C(C)(C)NC(=O)[C@@H](N)Cc1ccc(O)cc1)[C@@H](C)O)[C@@H](C)O)[C@@H](C)CC)C(C)C)C(=O)N[C@@H](CC(N)=O)C(=O)N[C@@H](CCCCNC(=O)CC[C@H](NC(=O)CC[C@H](NC(=O)CC[C@H](NC(=O)CC[C@H](NC(=O)CCCCCCCCCCCCCCCCC(=O)O)C(=O)O)C(=O)O)C(=O)O)C(=O)O)C(=O)NC(C)(C)C(=O)N[C@H](C(=O)N[C@@H](CCCNC(=N)N)C(=O)N[C@@H](CCC(N)=O)C(=O)N[C@@H](CCCNC(=N)N)C(=O)N[C@@H](Cc1ccc(O)cc1)C(N)=O)[C@@H](C)O` [Compound 77, Y-Aib-E-G-T-F-T-S-D-Y-S-I-Aib-L-E-K-Q-A-Q-Aib-A-F-V-R-H-L-I-N-K(1,3)-Aib-T-R-Q-R-Y-NH2.C18DA-gGlu-gGlu-gGlu-gGlu(1,2)], the EC50 worked out at 0.4 nM on hGLP1R (setting [4]); 1.8 nM on hGLP1R (100% human plasma, read-out: hGLP1R 100% hP); 0.3 nM on hGIPR (setting [3]). In series [1], this molecule showed an MRT of 7.4 h. Also, the solubility at 2 h in series [2] turned out to be 400 µg/mL.

Take `CC[C@H](C)[C@H](NC(=O)[C@H](CC(C)C)NC(=O)[C@H](Cc1c[nH]cn1)NC(=O)[C@H](CCCNC(=N)N)NC(=O)[C@@H](NC(=O)[C@H](Cc1ccccc1)NC(=O)[C@H](CCC(=O)O)NC(=O)C(C)(C)NC(=O)[C@H](CCC(N)=O)NC(=O)[C@H](C)NC(=O)[C@H](CCC(N)=O)NC(=O)[C@H](CCCCN)NC(=O)[C@H](CCC(=O)O)NC(=O)[C@H](CC(C)C)NC(=O)C(C)(C)NC(=O)[C@@H](NC(=O)[C@H](CO)NC(=O)[C@H](Cc1ccc(O)cc1)NC(=O)[C@H](CC(=O)O)NC(=O)[C@H](CO)NC(=O)[C@@H](NC(=O)[C@H](Cc1ccccc1)NC(=O)[C@@H](NC(=O)CNC(=O)[C@H](CCC(=O)O)NC(=O)C(C)(C)NC(=O)[C@@H](N)Cc1ccc(O)cc1)[C@@H](C)O)[C@@H](C)O)[C@@H](C)CC)C(C)C)C(=O)N[C@@H](CC(N)=O)C(=O)N[C@@H](CCCCNC(=O)CC[C@H](NC(=O)CC[C@H](NC(=O)CC[C@H](NC(=O)CC[C@H](NC(=O)CCCCCCCCCCCCCCCCC(=O)O)C(=O)O)C(=O)O)C(=O)O)C(=O)O)C(=O)NC(C)(C)C(=O)N[C@H](C(=O)N[C@@H](CCCNC(=N)N)C(=O)N[C@@H](CCC(N)=O)C(=O)N[C@@H](CCCNC(=N)N)C(=O)N[C@@H](Cc1ccc(O)cc1)C(N)=O)[C@@H](C)O` [Compound 79, Y-Aib-E-G-T-F-T-S-D-Y-S-I-Aib-L-E-K-Q-A-Q-Aib-E-F-V-R-H-L-I-N-K(1,3)-Aib-T-R-Q-R-Y-NH2.C18DA-gGlu-gGlu-gGlu-gGlu(1,2)]: the MRT in series [1] was determined as 7 h. Further, in series [2] (read-out: Solubility), the solubility turned out to be 4200 µg/mL.

For `CC[C@H](C)[C@H](NC(=O)[C@H](CC(C)C)NC(=O)[C@H](Cc1c[nH]cn1)NC(=O)[C@H](CCCNC(=N)N)NC(=O)[C@@H](NC(=O)[C@H](Cc1ccccc1)NC(=O)[C@H](C)NC(=O)C(C)(C)NC(=O)[C@H](CCC(N)=O)NC(=O)[C@H](C)NC(=O)[C@H](CCC(N)=O)NC(=O)[C@H](CCCCN)NC(=O)[C@H](CCC(=O)O)NC(=O)[C@H](CC(C)C)NC(=O)C(C)(C)NC(=O)[C@@H](NC(=O)[C@H](CO)NC(=O)[C@H](Cc1ccc(O)cc1)NC(=O)[C@H](CC(=O)O)NC(=O)[C@H](CO)NC(=O)[C@@H](NC(=O)[C@H](Cc1ccccc1)NC(=O)[C@@H](NC(=O)CNC(=O)[C@H](CCC(=O)O)NC(=O)C(C)(C)NC(=O)[C@@H](N)Cc1ccc(O)cc1)[C@@H](C)O)[C@@H](C)O)[C@@H](C)CC)C(C)C)C(=O)N[C@@H](CC(N)=O)C(=O)N[C@@H](CCCCNC(=O)[C@@H](N)CCCCNC(=O)CC[C@H](NC(=O)CC[C@H](NC(=O)CC[C@H](NC(=O)CC[C@H](NC(=O)CC[C@H](NC(=O)CC[C@H](NC(=O)CC[C@H](NC(=O)CCCCCCCCCCCCCCCCC(=O)O)C(=O)O)C(=O)O)C(=O)O)C(=O)O)C(=O)O)C(=O)O)C(=O)O)C(=O)NC(C)(C)C(=O)N[C@H](C(=O)N[C@@H](CCCNC(=N)N)C(=O)N[C@@H](CCC(N)=O)C(=O)N[C@@H](CCCNC(=N)N)C(=O)N[C@@H](Cc1ccc(O)cc1)C(N)=O)[C@@H](C)O` [Compound 121, Y-Aib-E-G-T-F-T-S-D-Y-S-I-Aib-L-E-K-Q-A-Q-Aib-A-F-V-R-H-L-I-N-K(1,3)-Aib-T-R-Q-R-Y-NH2.C18DA-gGlu-gGlu-gGlu-gGlu-gGlu-gGlu-gGlu-eLys(1,2)], the EC50 at hGLP1R (setting [4]) came out at 0.4 nM; on hGIPR (setting [3]), 0.2 nM; on hGIPR (100% human plasma, read-out: hGIPR 100% hP), 2.8 nM. Besides, the MRT in series [1] was found to be 10 h. The solubility at 2 h in series [2] amounted to 4200 µg/mL.
